Consider 21 compounds from patent publication US20120122903A1, “1-H-QUINAZOLINE-2, 4-DIONES FOR USE IN THE TREATMENT OF NEURONAL CEROID LIPOFUSCINOSIS” (priority 2009, published 2012).

The term ED50 denotes the dose that gives a 50% effect, or the effect in half of the subjects.

One experiment relates to OF1 mice. The experiment in a line: Murine maximal electroshock test (MES test). The class given is in vivo, mouse. The settings on record: for MES-Test (1 h, po) % protection @ 50: p.o., percentage of protected mice, printed '@ 50' (mg/kg); for ED50: Mus musculus, po, pre-treatment time 1 h. As for the experimental part:
Compounds of the invention were tested in OF1 mice using the maximal electroshock test (MES Test) described in detail by Schmutz et al., Naunyn-Schmiedeberg's Arch Pharmacol 1990, 342, 61-66. Briefly, generalized tonic-clonic convulsions of the hind extremities were induced by passing electrical current through temporal electrodes (50 Hz, 18 mA, 0.2 s). […] 30 mg/kg carbamazepine was used as a positive control; mice were classified as protected by a compound if the duration of the seizure lasted only 3 second or less. Five mice were used for each treatment condition and the percentage of protected mice was used as readout (i.e. a compound could give 0%, 20%, 40%, 60%, 80% or 100% protection). Compounds of the invention were given at a dose of 50 mg/kg, p.o., 1 hour prior to induction of convulsions (i.e. “pre-treatment time−1 h”).
ED50 values (ED: effective dose) were calculated using GraphPad Prism, v4.02.
15 s after shock administration, mouse blood was collected for determination of compounds' blood exposure.
On the technique in general: The maximal electroshock test induces tonic seizures with an electrical stimulus.

The test system of a further experiment is mouse. The experiment in a line: Oral activity in vivo (audiogenic mouse test and/or MES test). The settings on record: oral administration. The protocol:
The oral bioavailability was tested using the audiogenic mouse test (Audiogenic seizures, R. L. Collins; Chapter 14, pages: 347-372. In: Experimental Models of Epilepsy; By: Pupura, Penry, Tower, Woodbury, Waiter, Raven Press, New York, 1972. Standard Book Number: 0-911216-26-X) and/or the MES test.

Turning to `Cn1nncc1-c1cc2c(=O)n(NS(C)(=O)=O)c(=O)[nH]c2cc1C(F)(F)F` [Comparative, N-(6-(1-methyl-1H-1,2,3-triazol-5-yl)-2,4-dioxo-7-trifluoromethyl-1,4-dihydro-2H-quinazolin-3-yl]-methanesulfonamide, reference compound], the “MES-Test (1 h, po) % protection @ 50” value in the experiment with OF1 mice is recorded as 0% @ 50^. Further, the “In vivo orally active” value in the experiment with mouse is given as “No”. For the compound `CC(O)c1cc2c(=O)n(NS(C)(=O)=O)c(=O)[nH]c2cc1C(F)(F)F` (centres unmarked) [Compound A-1, N-[6-(1-Hydroxy-ethyl)-2,4-dioxo-7-trifluoromethyl-1,4-dihydro-2H-quinazolin-3-yl]-methanesulfonamide], the 50% effective dose (ED50) with OF1 mice was 64 mg/kg. In addition, the “In vivo orally active” value in the experiment with mouse is given as “Yes”. For `COC(C)c1cc2c(=O)n(NS(C)(=O)=O)c(=O)[nH]c2cc1C(F)(F)F` (centres unmarked) [Compound A-2, N-[6-(1-Methoxy-ethyl)-2,4-dioxo-7-trifluoromethyl-1,4-dihydro-2H-quinazolin-3-yl]-methanesulfonamide], in that order: 6 mg/kg and “Yes”. For `CCC(O)c1cc2c(=O)n(NS(C)(=O)=O)c(=O)[nH]c2cc1C(F)(F)F` (centres unmarked) [Compound A-3, N-[6-(1-Hydroxy-propyl)-2,4-dioxo-7-trifluoromethyl-1,4-dihydro-2H-quinazolin-3-yl]-methanesulfonamide], in that order: 19.6 mg/kg and “Yes”. For `CC(C)OC(C)c1cc2c(=O)n(NS(C)(=O)=O)c(=O)[nH]c2cc1C(F)(F)F` (centres unmarked) [Compound A-4, N-[6-(1-Isopropoxy-ethyl)-2,4-dioxo-7-trifluoromethyl-1,4-dihydro-2H-quinazolin-3-yl]-methanesulfonamide], in that order: 15.6 mg/kg and “Yes”. With `CCOC(C)c1cc2c(=O)n(NS(C)(=O)=O)c(=O)[nH]c2cc1C(F)(F)F` (centres unmarked) [Compound A-5, N-[6-(1-Ethoxy-ethyl)-2,4-dioxo-7-trifluoromethyl-1,4-dihydro-2H-quinazolin-3-yl]-methanesulfonamide], in the experiment on OF1 mice, the ED50 turned out to be 8.8 mg/kg. Also, the “In vivo orally active” value in the experiment on mouse was “Yes”. In the same order, the values of `CCC(OC(C)C)c1cc2c(=O)n(NS(C)(=O)=O)c(=O)[nH]c2cc1C(F)(F)F` (centres unmarked) [Compound A-7, N-[6-(1-Isopropoxy-propyl)-2,4-dioxo-7-trifluoromethyl-1,4-dihydro-2H-quinazolin-3-yl]-methanesulfonamide] are 24.7 mg/kg and “Yes”. On to `CCOC(CC)c1cc2c(=O)n(NS(C)(=O)=O)c(=O)[nH]c2cc1C(F)(F)F` (centres unmarked) [Compound A-13, N-[6-(1-Ethoxy-propyl)-2,4-dioxo-7-trifluoromethyl-1,4-dihydro-2H-quinazolin-3-yl]-methanesulfonamide], for which the “In vivo orally active” value in the experiment with mouse is reported as “Yes”. On to `CC(OC1CCCC1)c1cc2c(=O)n(NS(C)(=O)=O)c(=O)[nH]c2cc1C(F)(F)F` (centres unmarked) [Compound A-14, N-[6-(1-Cyclopentyloxy-ethyl)-2,4-dioxo-7-trifluoromethyl-1,4-dihydro-2H-quinazolin-3-yl]-methanesulfonamide], for which the “In vivo orally active” value with mouse is “yes”. With `CCCC(O)c1cc2c(=O)n(NS(C)(=O)=O)c(=O)[nH]c2cc1C(F)(F)F` (centres unmarked) [Compound A-15, N-[6-(1-Hydroxy-butyl)-2,4-dioxo-7-trifluoromethyl-1,4-dihydro-2H-quinazolin-3-yl]-methanesulfonamide], the median effective dose (ED50) in the experiment on OF1 mice stood at 35 mg/kg. In the experiment on mouse, the “In vivo orally active” value is listed as “Yes”. As to `COCCC(O)c1cc2c(=O)n(NS(C)(=O)=O)c(=O)[nH]c2cc1C(F)(F)F` (centres unmarked) [Compound A-18, N-[6-(1-Hydroxy-3-methoxy-propyl)-2,4-dioxo-7-trifluoromethyl-1,4-dihydro-2H-quinazolin-3-yl]-methanesulfonamide], the “In vivo orally active” value in the experiment with mouse is “Yes”. Same read-out and setting: then `CS(=O)(=O)Nn1c(=O)[nH]c2cc(C(F)(F)F)c(C3CCCO3)cc2c1=O` (centres unmarked) [Compound B-2, N-[2,4-Dioxo-6-(tetrahydro-furan-2-yl)-7-trifluoromethyl-1,4-dihydro-2H-quinazolin-3-yl]-methanesulfonamide], with “Yes”.

As for `CC(C)n1nccc1-c1cc2c(=O)n(NS(C)(=O)=O)c(=O)[nH]c2cc1C(F)(F)F` [Compound C-2, N-[6-(2-Isopropyl-2H-pyrazol-3-yl)-2,4-dioxo-7-trifluoromethyl-1,4-dihydro-2H-quinazolin-3-yl]-methanesulfonamide], in the experiment with OF1 mice, the median effective dose (ED50) stood at 17.7 mg/kg. Also, the “In vivo orally active” value in the experiment with mouse was “Yes”.

Turning to `COCCn1nccc1-c1cc2c(=O)n(NS(C)(=O)=O)c(=O)[nH]c2cc1C(F)(F)F` [Compound C-4, N-{6-[2-(2-Methoxy-ethyl)-2H-pyrazol-3-yl]-2,4-dioxo-7-trifluoromethyl-1,4-dihydro-2H-quinazolin-3-yl}-methanesulfonamide], the “In vivo orally active” value in the experiment with mouse was “Yes”. The same measure, in the same setting: for `CS(=O)(=O)Nn1c(=O)[nH]c2cc(C(F)(F)F)c(-c3ccnn3O)cc2c1=O` [Compound C-5, N-[6-(2-Hydroxy-2H-pyrazol-3-yl)-2,4-dioxo-7-trifluoromethyl-1,4-dihydro-2H-quinazolin-3-yl]-methanesulfonamide] the value was “Yes”.

Consider `CCc1cc2[nH]c(=O)n(NS(C)(=O)=O)c(=O)c2cc1-c1ccnn1C(C)C` [Compound C-6, N-[7-Ethyl-6-(2-isopropyl-2H-pyrazol-3-yl)-2,4-dioxo-1,4-dihydro-2H-quinazolin-3-yl]-methanesulfonamide], for which the “MES-Test (1 h, po) % protection @ 50” value with OF1 mice was 20% @ 50^. Moreover, the “In vivo orally active” value with mouse is listed as “yes”. `CC(C)c1cc2[nH]c(=O)n(NS(C)(=O)=O)c(=O)c2cc1-c1ccnn1C` [Compound C-7, N-[7-Isopropyl-6-(2-methyl-2H-pyrazol-3-yl)-2,4-dioxo-1,4-dihydro-2H-quinazolin-3-yl]-methanesulfonamide]: in the experiment with OF1 mice, the median effective dose (ED50) is 6.9 mg/kg. Also, in the experiment on mouse, the “In vivo orally active” value was “Yes”. Take `CC(C)c1cc2[nH]c(=O)n(NS(C)(=O)=O)c(=O)c2cc1-c1ccnn1C(C)C` [Compound C-8, N-[7-Isopropyl-6-(2-isopropyl-2H-pyrazol-3-yl)-2,4-dioxo-1,4-dihydro-2H-quinazolin-3-yl]-methanesulfonamide]: the “MES-Test (1 h, po) % protection @ 50” value with OF1 mice is reported as 40% @ 50^. The “In vivo orally active” value in the experiment with mouse is reported as “yes”. Take `Cn1nccc1-c1cc2c(=O)n(NS(C)(=O)=O)c(=O)[nH]c2cc1C(F)F` [Compound C-9, N-[7-Difluoromethyl-6-(2-methyl-2H-pyrazol-3-yl)-2,4-dioxo-1,4-dihydro-2H-quinazolin-3-yl]-methanesulfonamide]: the median effective dose (ED50) in the experiment with OF1 mice came to 7.5 mg/kg. For the same compound, the “In vivo orally active” value in the experiment with mouse is “Yes”. For `CC(C)n1nccc1-c1cc2c(=O)n(NS(C)(=O)=O)c(=O)[nH]c2cc1C(F)F` [Compound C-10, N-[7-Difluoromethyl-6-(2-isopropyl-2H-pyrazol-3-yl)-2,4-dioxo-1,4-dihydro-2H-quinazolin-3-yl]-methanesulfonamide], in that order: 20.3 mg/kg and “Yes”. Take `CC(C)n1nccc1-c1cc2c(=O)n(NS(C)(=O)=O)c(=O)[nH]c2cc1C(C)(F)F` [Compound C-16, N-[7-(1,1-difluoro-ethyl)-6-(2-isopropyl-2H-pyrazol-3-yl)-2,4-dioxo-1,4-dihydro-2H-quinazolin-3-yl]-methanesulfonamide]: the “In vivo orally active” value in the experiment on mouse is “Yes”.
